{
  "source": "ChEMBL document CHEMBL3044789",
  "about": "“Comparing weed and crop seedling response to pre-emergence pendimethalin application in Corchorus olitorius and Abelmoschus esculentus” (Crop Prot, 2006)",
  "key": {"Synedrella nodiflora [1]": {"test_system": "Synedrella nodiflora", "test": "Herbicidal activity against Synedrella nodiflora in Abelmoschus esculentus plots assessed as weed cover at 1.32 kg a.i/ha after 4 weeks (reference value: 22.6 +/- 0.49 %)", "type": "functional"}, "Cyperus rotundus [2]": {"test_system": "Cyperus rotundus", "test": "Herbicidal activity against Cyperus rotundus in Abelmoschus esculentus plots assessed as weed cover at 0.66 kg a.i/ha after 4 weeks (reference value: 22.6 +/- 0.49 %)", "type": "functional"}, "Calopogonium mucunoides [3]": {"test_system": "Calopogonium mucunoides", "test": "Herbicidal activity against Calopogonium mucunoides in Abelmoschus esculentus plots assessed as weed cover at 0.33 kg a.i/ha after 4 weeks (reference value: 22.6 +/- 0.49 %)", "type": "functional"}, "Euphorbia heterophylla [4]": {"test_system": "Euphorbia heterophylla", "test": "Herbicidal activity against Euphorbia heterophylla in Abelmoschus esculentus plots assessed as major weed growth at 0.66 kg a.i/ha after 2 weeks", "type": "functional"}, "Calopogonium mucunoides [5]": {"test_system": "Calopogonium mucunoides", "test": "Herbicidal activity against Calopogonium mucunoides in Corchorus olitorius plots assessed as major weed growth at 1.32 kg a.i/ha after 2 weeks", "type": "functional"}, "Calopogonium mucunoides [6]": {"test_system": "Calopogonium mucunoides", "test": "Herbicidal activity against Calopogonium mucunoides in Abelmoschus esculentus plots assessed as weed cover at 0.99 kg a.i/ha after 7 weeks (reference value: 14.7 +/- 0.46 %)", "type": "functional"}, "Talinum fruticosum": {"test_system": "Talinum fruticosum", "test": "Herbicidal activity against Talinum fruticosum in Abelmoschus esculentus plots assessed as weed cover at 0.99 kg a.i/ha after 7 weeks (reference value: 14.7 +/- 0.46 %)", "type": "functional"}, "Calopogonium mucunoides [7]": {"test_system": "Calopogonium mucunoides", "test": "Herbicidal activity against Calopogonium mucunoides in Abelmoschus esculentus plots assessed as weed cover at 1.32 kg a.i/ha after 2 weeks (reference value: 63.5 +/- 0.29 %)", "type": "functional"}, "Euphorbia heterophylla [8]": {"test_system": "Euphorbia heterophylla", "test": "Herbicidal activity against Euphorbia heterophylla in Abelmoschus esculentus plots assessed as weed cover at 0.99 kg a.i/ha after 2 weeks (reference value: 63.5 +/- 0.29 %)", "type": "functional"}, "Commelina diffusa": {"test_system": "Commelina diffusa", "test": "Herbicidal activity against Commelina diffusa in Corchorus olitorius plots assessed as weed cover at 0.66 kg a.i/ha after 7 weeks (reference value: 1.7 +/- 0.56 %)", "type": "functional"}, "Abelmoschus esculentus [9]": {"test_system": "Abelmoschus esculentus", "test": "Phytotoxicity in Abelmoschus esculentus assessed as seedling emergence at 0.99 kg a.i/ha treated to soil after 7 weeks (reference value: 95 +/- 0.05 %)", "type": "organism-based", "settings": "in vivo, other, 1176 h"}, "Corchorus olitorius": {"test_system": "Corchorus olitorius", "test": "Phytotoxicity in Corchorus olitorius assessed as shoot length at 0.66 kg a.i/ha applied as solution after 7 weeks (reference value: 22.9 +/- 0.8 mm)", "type": "organism-based", "settings": "in vivo, other, 1176 h"}, "Calopogonium mucunoides [10]": {"test_system": "Calopogonium mucunoides", "test": "Herbicidal activity against Calopogonium mucunoides in Corchorus olitorius plots assessed as weed recovery at 0.66 kg a.i/ha after 2 weeks (reference value: 78.3 +/- 0.74 %)", "type": "functional"}, "Euphorbia heterophylla [11]": {"test_system": "Euphorbia heterophylla", "test": "Herbicidal activity against Euphorbia heterophylla in Corchorus olitorius plots assessed as weed recovery at 0.66 kg a.i/ha after 2 weeks (reference value: 78.3 +/- 0.74 %)", "type": "functional"}, "Abelmoschus esculentus [12]": {"test_system": "Abelmoschus esculentus", "test": "Phytotoxicity in Abelmoschus esculentus assessed as seedling injury at 0.99 kg a.i/ha applied as solution after 7 weeks relative to control", "type": "organism-based", "settings": "in vivo, other, 1176 h"}, "Abelmoschus esculentus [13]": {"test_system": "Abelmoschus esculentus", "test": "Phytotoxicity in Abelmoschus esculentus assessed as seedling injury at 0.66 kg a.i/ha applied as solution after 7 weeks relative to control", "type": "organism-based", "settings": "in vivo, other, 1176 h"}, "Abelmoschus esculentus [14]": {"test_system": "Abelmoschus esculentus", "test": "Phytotoxicity in Abelmoschus esculentus assessed as seedling injury at 0.33 kg a.i/ha applied as solution after 7 weeks relative to control", "type": "organism-based", "settings": "in vivo, other, 1176 h"}, "Abelmoschus esculentus [15]": {"test_system": "Abelmoschus esculentus", "test": "Phytotoxicity in Abelmoschus esculentus assessed as root length at 1.32 kg a.i/ha applied as solution after 7 weeks (reference value: 23 +/- 0.34 mm)", "type": "organism-based", "settings": "in vivo, other, 1176 h"}, "Chromolaena odorata [16]": {"test_system": "Chromolaena odorata", "test": "Herbicidal activity against Chromolaena odorata in Corchorus olitorius plots assessed as weed cover at 0.99 kg a.i/ha after 2 weeks (reference value: 81.7 +/- 0.43 %)", "type": "functional"}, "Calopogonium mucunoides [17]": {"test_system": "Calopogonium mucunoides", "test": "Herbicidal activity against Calopogonium mucunoides in Corchorus olitorius plots assessed as weed cover at 0.66 kg a.i/ha after 2 weeks (reference value: 81.7 +/- 0.43 %)", "type": "functional"}, "Synedrella nodiflora [18]": {"test_system": "Synedrella nodiflora", "test": "Herbicidal activity against Synedrella nodiflora in Corchorus olitorius plots assessed as weed cover at 0.66 kg a.i/ha after 2 weeks (reference value: 81.7 +/- 0.43 %)", "type": "functional"}, "[19]": {"test_system": "Rottboellia cochinchinensis", "test": "Herbicidal activity against Rottboellia cochinchinensis in Corchorus olitorius plots assessed as weed cover at 0.33 kg a.i/ha after 2 weeks (reference value: 81.7 +/- 0.43 %)", "type": "functional"}, "Ageratum conyzoides [20]": {"test_system": "Ageratum conyzoides", "test": "Herbicidal activity against Ageratum conyzoides in Corchorus olitorius plots assessed as weed cover at 0.33 kg a.i/ha after 2 weeks (reference value: 81.7 +/- 0.43 %)", "type": "functional"}, "Synedrella nodiflora [21]": {"test_system": "Synedrella nodiflora", "test": "Herbicidal activity against Synedrella nodiflora in Corchorus olitorius plots assessed as weed recovery at 0.33 kg a.i/ha after 2 weeks (reference value: 78.3 +/- 0.74 %)", "type": "functional"}, "Chromolaena odorata [22]": {"test_system": "Chromolaena odorata", "test": "Herbicidal activity against Chromolaena odorata in Corchorus olitorius plots assessed as weed recovery at 0.33 kg a.i/ha after 2 weeks (reference value: 78.3 +/- 0.74 %)", "type": "functional"}, "Chromolaena odorata [23]": {"test_system": "Chromolaena odorata", "test": "Herbicidal activity against Chromolaena odorata in Corchorus olitorius plots assessed as weed cover at 1.32 kg a.i/ha after 7 weeks (reference value: 1.7 +/- 0.56 %)", "type": "functional"}, "Ageratum conyzoides [24]": {"test_system": "Ageratum conyzoides", "test": "Herbicidal activity against Ageratum conyzoides in Corchorus olitorius plots assessed as weed cover at 1.32 kg a.i/ha after 7 weeks (reference value: 1.7 +/- 0.56 %)", "type": "functional"}, "Abelmoschus esculentus [25]": {"test_system": "Abelmoschus esculentus", "test": "Phytotoxicity in Abelmoschus esculentus assessed as seed germination at 1.32 kg a.i/ha applied as solution after 7 weeks (reference value: 85.7 +/- 0.36 %)", "type": "organism-based", "settings": "in vivo, other, 1176 h"}, "Synedrella nodiflora [26]": {"test_system": "Synedrella nodiflora", "test": "Herbicidal activity against Synedrella nodiflora in Corchorus olitorius plots assessed as weed cover at 0.66 kg a.i/ha after 4 weeks (reference value: 20.1+/- 0.57 %)", "type": "functional"}, "Abelmoschus esculentus [27]": {"test_system": "Abelmoschus esculentus", "test": "Phytotoxicity in Abelmoschus esculentus assessed as crop seedling injury at 0.33 kg a.i/ha after 2 weeks relative to untreated control", "type": "organism-based", "settings": "in vivo, 336 h"}, "Synedrella nodiflora [28]": {"test_system": "Synedrella nodiflora", "test": "Herbicidal activity against Synedrella nodiflora in Abelmoschus esculentus plots assessed as weed recovery at 0.99 kg a.i/ha after 2 weeks (reference value: 60.1 +/- 0.46 %)", "type": "functional"}, "Cyperus rotundus [29]": {"test_system": "Cyperus rotundus", "test": "Herbicidal activity against Cyperus rotundus in Abelmoschus esculentus plots assessed as weed recovery at 0.66 kg a.i/ha after 2 weeks (reference value: 60.1 +/- 0.46 %)", "type": "functional"}, "Synedrella nodiflora [30]": {"test_system": "Synedrella nodiflora", "test": "Herbicidal activity against Synedrella nodiflora in Abelmoschus esculentus plots assessed as weed recovery at 0.66 kg a.i/ha after 2 weeks (reference value: 60.1 +/- 0.46 %)", "type": "functional"}, "Euphorbia heterophylla [31]": {"test_system": "Euphorbia heterophylla", "test": "Herbicidal activity against Euphorbia heterophylla in Corchorus olitorius plots assessed as weed cover at 0.33 kg a.i/ha after 4 weeks (reference value: 20.1+/- 0.57 %)", "type": "functional"}, "Calopogonium mucunoides [32]": {"test_system": "Calopogonium mucunoides", "test": "Herbicidal activity against Calopogonium mucunoides in Corchorus olitorius plots assessed as weed cover at 1.32 kg a.i/ha after 2 weeks (reference value: 81.7 +/- 0.43 %)", "type": "functional"}, "Chromolaena odorata [33]": {"test_system": "Chromolaena odorata", "test": "Herbicidal activity against Chromolaena odorata in Corchorus olitorius plots assessed as weed cover at 1.32 kg a.i/ha after 2 weeks (reference value: 81.7 +/- 0.43 %)", "type": "functional"}},
  "data": [
    {"smiles": "CCC(CC)Nc1c([N+](=O)[O-])cc(C)c(C)c1[N+](=O)[O-]", "note": "[PENDIMETHALIN]", "values": [
      {"measurement": "Activity", "setting": "Synedrella nodiflora [1]", "result": 36.2, "unit": "%"},
      {"measurement": "Activity", "setting": "Cyperus rotundus [2]", "result": 47.9, "unit": "%"},
      {"measurement": "Activity", "setting": "Calopogonium mucunoides [3]", "result": 53.8, "unit": "%"},
      {"measurement": "Activity", "setting": "Euphorbia heterophylla [4]", "result": "31 /m2"},
      {"measurement": "Activity", "setting": "Calopogonium mucunoides [5]", "result": "31 /m2"},
      {"measurement": "Activity", "setting": "Calopogonium mucunoides [6]", "result": 83.9, "unit": "%"},
      {"measurement": "Activity", "setting": "Talinum fruticosum", "result": 83.9, "unit": "%"},
      {"measurement": "Activity", "setting": "Calopogonium mucunoides [7]", "result": 45, "unit": "%"},
      {"measurement": "Activity", "setting": "Euphorbia heterophylla [8]", "result": 47.9, "unit": "%"},
      {"measurement": "Activity", "setting": "Commelina diffusa", "result": 100, "unit": "%"},
      {"measurement": "Activity", "setting": "Abelmoschus esculentus [9]", "result": 85, "unit": "%"},
      {"measurement": "Activity", "setting": "Corchorus olitorius", "result": 6, "unit": "mm"},
      {"measurement": "Activity", "setting": "Calopogonium mucunoides [10]", "result": 33.3, "unit": "%"},
      {"measurement": "Activity", "setting": "Euphorbia heterophylla [11]", "result": 33.3, "unit": "%"},
      {"measurement": "Activity", "setting": "Abelmoschus esculentus [12]", "result": 47.9, "unit": "%"},
      {"measurement": "Activity", "setting": "Abelmoschus esculentus [13]", "result": 39.2, "unit": "%"},
      {"measurement": "Activity", "setting": "Abelmoschus esculentus [14]", "result": 29.9, "unit": "%"},
      {"measurement": "Activity", "setting": "Abelmoschus esculentus [15]", "result": 11.5, "unit": "mm"},
      {"measurement": "Activity", "setting": "Chromolaena odorata [16]", "result": 51.7, "unit": "%"},
      {"measurement": "Activity", "setting": "Calopogonium mucunoides [17]", "result": 51.7, "unit": "%"},
      {"measurement": "Activity", "setting": "Synedrella nodiflora [18]", "result": 51.7, "unit": "%"},
      {"measurement": "Activity", "setting": "[19]", "result": 63.3, "unit": "%"},
      {"measurement": "Activity", "setting": "Ageratum conyzoides [20]", "result": 63.3, "unit": "%"},
      {"measurement": "Activity", "setting": "Synedrella nodiflora [21]", "result": 31.7, "unit": "%"},
      {"measurement": "Activity", "setting": "Chromolaena odorata [22]", "result": 31.7, "unit": "%"},
      {"measurement": "Activity", "setting": "Chromolaena odorata [23]", "result": 95, "unit": "%"},
      {"measurement": "Activity", "setting": "Ageratum conyzoides [24]", "result": 95, "unit": "%"},
      {"measurement": "Activity", "setting": "Abelmoschus esculentus [25]", "result": 40.2, "unit": "%"},
      {"measurement": "Activity", "setting": "Synedrella nodiflora [26]", "result": 63.3, "unit": "%"},
      {"measurement": "Activity", "setting": "Abelmoschus esculentus [27]", "result": 39.9, "unit": "%"},
      {"measurement": "Activity", "setting": "Synedrella nodiflora [28]", "result": 36.2, "unit": "%"},
      {"measurement": "Activity", "setting": "Cyperus rotundus [29]", "result": 47.9, "unit": "%"},
      {"measurement": "Activity", "setting": "Synedrella nodiflora [30]", "result": 47.9, "unit": "%"},
      {"measurement": "Activity", "setting": "Euphorbia heterophylla [31]", "result": 73.3, "unit": "%"},
      {"measurement": "Activity", "setting": "Calopogonium mucunoides [32]", "result": 41.7, "unit": "%"},
      {"measurement": "Activity", "setting": "Chromolaena odorata [33]", "result": 41.7, "unit": "%"}
    ]}
  ]
}
